Assay results: patent publication US20240316051A1, “A PHARMACEUTICAL COMBINATION AND USE THEREOF” (Ascentage Pharma (Suzhou) Co., Ltd., priority 2021, published 2024)

biological target: T1, EED (1-441)-His protein (Homo sapiens, UniProt O75530); assay: EED-H3K27Me3 peptide competition binding assay by AlphaScreen; settings: IC50 class, Table 4B, read-out: Alpha screen
T1 construct: 20 nM EED (1-441)-His protein
Protocol: EED-H3K27Me3 Peptide Competition Binding Assay by AlphaScreen (α-Screen):
The compounds at each concentration (2.5 μl of each) were transferred into a 384-well Perkin Elmer OptiPlate-384 white plates. 5 μl of solutions containing 20 nM EED (1-441)-His protein in the buffer (25 mM HEPES, pH 8, 0.02% Tween-20, 0.5% BSA) were added to the wells and then incubated with compound for 15 min. 2.5 μl of solutions containing 20 nM biotin-H3K27Me3 (19-33) peptide in the buffer (25 mM HEPES, pH 8, 0.02% Tween-20, 0.5% BSA) were added to the wells and then incubated with compound for 30 min. AlphaScreen detection beads mix was prepared immediately before use by mixing nickel chelate acceptor beads and streptavidin donor beads in a 1:1 ratio (Perkin Elmer, Product No. 6760619C/M/R) into the buffer described above. Then 10 μl of the detection beads mix was added to the plate and incubated in the dark at RT for 1 h. The final concentration of donor and acceptor beads was 10 μg/ml for each. Plates were read on CLARIOStar plate reader (BMG Labtech) using the AlphaScreen setting adapted for optimal signal detection with a 615 nm filter, after sample excitation at 680 nm. The emission signal at 615 nm was used to quantify compound inhibition. AlphaScreen signals were normalized based on the reading coming from the positive (maximum signal control) and negative controls (minimum signal control) to give percentage of activities left. The data were then fit to a dose response equation to get the IC50 values.

T1 sequence (O75530 whole entry): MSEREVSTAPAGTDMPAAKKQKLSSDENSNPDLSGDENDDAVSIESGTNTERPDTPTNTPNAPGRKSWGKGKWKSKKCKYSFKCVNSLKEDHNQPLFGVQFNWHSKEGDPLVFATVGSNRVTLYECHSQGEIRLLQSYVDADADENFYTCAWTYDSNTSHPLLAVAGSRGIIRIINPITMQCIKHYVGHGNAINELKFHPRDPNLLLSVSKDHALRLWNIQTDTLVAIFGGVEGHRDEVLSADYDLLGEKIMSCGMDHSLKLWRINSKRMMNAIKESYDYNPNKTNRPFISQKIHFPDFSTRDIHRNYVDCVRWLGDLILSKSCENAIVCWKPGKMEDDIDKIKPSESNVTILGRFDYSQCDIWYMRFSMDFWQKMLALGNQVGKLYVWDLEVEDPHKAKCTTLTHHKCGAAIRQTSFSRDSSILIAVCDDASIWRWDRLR

| SMILES | IC50 |
| --- | --- |
| CCc1ccc2c(n1)CN(CC(F)(F)F)C(=O)c1ncn3c(NCc4c(F)ccc5c4CCO5)ncc-2c13 [E 12, 7-ethyl-12-(((5-fluoro-2,3-dihydrobenzofuran-4-yl)methyl)amino)-4-(2,2,2-trifluoroethyl)-4,5-dihydro-3H-2,4,6,11,12a-pentaazabenzo[4,5]cycloocta [1,2,3-cd]inden-3-one] | < 10 nM |
| Cc1ccc2c(n1)Cn1c(C)cnc1-c1ncn3c(NCc4c(F)ccc5c4CCO5)ncc-2c13 [E 18, N-((5-fluoro-2,3-dihydrobenzofuran-4-yl)methyl)-5,8-dimethyl-6H-2,3,5a,7,12,13a-hexaazabenzo[4, 5]cyclopenta[7,8]cycloocta[1,2,3-cd]inden-13-amine] | < 10 nM |
| O=C1c2ncn3c(NCc4c(F)ccc5c4CCO5)ncc(c23)-c2cnc(C(F)(F)F)cc2CN1C1CCC1 [E 5, 4-cyclobutyl-12-(((5-fluoro-2,3-dihydrobenzofuran-4-yl)methyl)amino)-7-(trifluoromethyl)-4,5-dihydro-3H-2,4,8,11,12a-pentaazabenzo[4,5] cycloocta[1,2,3-cd]inden-3-one] | < 10 nM |
| O=C1c2ncn3c(NCc4c(F)ccc5c4CCO5)ncc(c23)-c2ccc(C(F)(F)F)nc2CN1CC(F)F [E 8, 4-(2,2-difluoroethyl)-12-(((5-fluoro-2,3-dihydro-benzofuran-4-yl)methyl)amino)-7-(trifluoromethyl)-4,5-dihydro-3H-2,4,6, 11,12a-pentaazabenzo[4,5] cycloocta[1,2,3-cd]inden-3-one] | < 10 nM |
| Cc1cc2c(cn1)-c1cnc(NCc3c(F)ccc4c3CCO4)n3cnc(c13)C(=O)N(CC(F)F)C2 [E 9, 4-(2,2-difluoroethyl)-12-(((5-fluoro-2,3-dihydro-benzofuran-4-yl)methyl)amino)-7-methyl-4,5-dihydro-3H-2,4,8,11,12a-pentaazabenzo[4,5] cycloocta[1,2,3-cd]inden-3-one] | < 10 nM |

same assay, conditions: Table 4A, read-out: Alpha screen

| SMILES | IC50 |
| --- | --- |
| CN1CCC(N2Cc3cc(C(F)(F)F)ccc3-c3cnc(NCc4c(F)ccc5c4CCO5)n4cnc(c34)C2=O)CC1 [Compound 74, 12-(((5-fluoro-2,3-dihydrobenzofuran-4-yl)methyl)amino)-4-(1-methylpiperidin-4-yl)-7-(trifluoro-methyl)-4,5-dihydro-3H-2,4,11,12a-tetraazabenzo [4,5]cycloocta[1,2,3-cd]inden-3-one] | 1.67 nM |
| O=C1c2ncn3c(NCc4c(F)ccc5c4CCO5)ncc(c23)-c2ccc(C(F)(F)F)nc2CN1CC1COCCO1 (stereo not shown) [Compound 35, 4-((1,4-dioxan-2-yl)methyl)-12-(((5-fluoro-2,3-dihydrobenzofuran-4-yl)methyl)amino)-7-(trifluoro-methyl)-4,5-dihydro-3H-2,4,6,11,12a-pentaazabenzo [4,5]cycloocta[1,2,3-cd]inden-3-one] | 1.16 nM |
| CC(F)(F)CN1Cc2cc(C(F)(F)F)ncc2-c2cnc(NCc3c(F)ccc4c3CCO4)n3cnc(c23)C1=O [Compound 82, 4-(2,2-difluoropropyl)-12-(((5-fluoro-2,3-dihydrobenzofuran-4-yl)methyl)amino)-7-(trifluoromethyl)-4,5-dihydro-3H-2,4,8,11,12a-pentaazabenzo[4,5] cycloocta[1,2,3-cd]inden-3-one] | 10.5 nM |
| O=C1NCc2nc(C(F)(F)F)ccc2-c2cnc(NCc3c(F)ccc4c3CCO4)n3cnc1c23 [Compound 25, 12-(((5-fluoro-2,3-dihydrobenzofuran-4-yl)methyl)amino)-7-(trifluoromethyl)-4,5-dihydro-3H-2,4,6, 11,12a-pentaazabenzo[4,5]cycloocta[1,2,3-cd] inden-3-one] | 3.31 nM |
| CN1Cc2ccc(C(F)(F)F)nc2-c2cnc(NCc3c(F)ccc4c3CCO4)n3cnc(c23)C1=O [Compound 39, 12-(((5-fluoro-2,3-dihydrobenzofuran-4-yl)methyl)amino)-4-methyl-8-(trifluoromethyl)-4,5-dihydro-3H-2,4,9,11,12a-pentaazabenzo[4,5]cycloocta [1,2,3-cd]inden-3-one] | 26.1 nM |
| CN1CCC(CN2Cc3nc(C(F)(F)F)ccc3-c3cnc(NCc4c(F)ccc5c4CCO5)n4cnc(c34)C2=O)CC1 [Compound 42, 12-(((5-fluoro-2,3-dihydrobenzofuran-4-yl)methyl)amino)-4-((1-methylpiperidin-4-yl)methyl)-7-(trifluoromethyl)-4,5-dihydro-3H-2,4,6,11,12a-pentaazabenzo[4,5]cycloocta[1,2,3-cd]inden-3-one] | 0.84 nM |
| Cc1cccc(F)c1CNc1ncc2c3c(ncn13)COCc1ncccc1-2 [Compound 1, N-(2-fluoro-6-methylbenzyl)-3H,5H-4-oxa-2,6,11, 12a-tetraazabenzo[4,5]cycloocta[1,2,3-cd]inden-1 2-amine] | > 10 nM |
| O=C1OCc2cc(F)ccc2-c2cnc(NCc3c(F)ccc4c3CCO4)n3cnc1c23 [Compound 7, 7-fluoro-12-(((5-fluoro-2,3-dihydrobenzofuran-4-yl)methyl)amino)-3H,5H-4-oxa-2,11,12a-triazabenzo [4,5]cycloocta[1,2,3-cd]inden-3-one] | 0.61 nM |
| O=C1OCc2cc(C(F)(F)F)ncc2-c2cnc(NCc3c(F)ccc4c3CCO4)n3cnc1c23 [Compound 13, 12-(((5-fluoro-2,3-dihydrobenzofuran-4-yl)methyl)amino)-7-(trifluoromethyl)-3H,5H-4-oxa-2,8,11, 12a-tetraazabenzo[4,5]cycloocta[1,2,3-cd]inden-3-one] | 1.09 nM |
| CC1(O)CC(CN2Cc3cc(C(F)(F)F)ncc3-c3cnc(NCc4c(F)ccc5c4CCO5)n4cnc(c34)C2=O)C1 (stereo not shown) [Compound 49, 12-(((5-fluoro-2,3-dihydrobenzofuran-4-yl)methyl)amino)-4-((3-hydroxy-3-methylcyclobutyl)methyl)-7-(trifluoromethyl)-4,5-dihydro-3H-2,4,8,11,12a-pentaazabenzo[4,5]cycloocta[1,2,3-cd]inden-3-one] | 1.81 nM |
| O=C1c2ncn3c(NCc4c(F)ccc5c4CCO5)ncc(c23)-c2ccc(C(F)(F)F)cc2CN1CC1CCOCC1 [Compound 66, 12-(((5-fluoro-2,3-dihydrobenzofuran-4-yl)methyl)amino)-4-((tetrahydro-2H-pyran-4-yl)methyl)-7-(trifluoromethyl)-4,5-dihydro-3H-2,4,11,12a-tetra-azabenzo[4,5]cycloocta[1,2,3-cd]inden-3-one] | 3.61 nM |
| CC(C)(O)CN1Cc2cc(C(F)(F)F)ncc2-c2cnc(NCc3c(F)ccc4c3CCO4)n3cnc(c23)C1=O [Compound 48, 12-(((5-fluoro-2,3-dihydrobenzofuran-4-yl)methyl)amino)-4-(2-hydroxy-2-methylpropyl)-7-(trifluoro-methyl)-4,5-dihydro-3H-2,4,8,11,12a-pentaaza-benzo[4,5]cycloocta[1,2,3-cd]inden-3-one] | 1.65 nM |
| O=C1OCc2ccc(C(F)(F)F)nc2-c2cnc(NCc3c(F)ccc4c3CCO4)n3cnc1c23 [Compound 29, 12-(((5-fluoro-2,3-dihydrobenzofuran-4-yl)methyl)amino)-8-(trifluoromethyl)-3H,5H-4-oxa-2,9,11, 12a-tetraazabenzo[4,5]cycloocta[1,2,3-cd]inden-3-one] | 20.7 nM |
| O=C1c2ncn3c(NCc4c(F)ccc5c4CCO5)ncc(c23)-c2ccc(C(F)(F)F)nc2CN1C1CC1 [Compound 41, 4-cyclopropyl-12-(((5-fluoro-2,3-dihydrobenzofuran-4-yl)methyl)amino)-7-(trifluoromethyl)-4,5-dihydro-3H-2,4,6,11,12a-pentaazabenzo[4,5] cycloocta[1,2,3-cd]inden-3-one] | 0.6 nM |
